Experiment in all cases: inhibition of tumour cell growth, NCI panel, 48 h
Assay [1] deals with T47D.
Assay [2] concerns Hs-578T.
For assay [3], the system named is HL-60.
In assay [4] the test system is HCC 2998.
In assay [5] the test system is HT-29.
Assay [6] concerns SF-539.
Assay [7] deals with MOLT-4.
Assay [8] relates to OVCAR-3.
The subject of assay [9] is OVCAR-8.
Assay [10] concerns EKVX.
Assay [11] relates to OVCAR-4.
In assay [12] the test system is OVCAR-5.
Assay [13] deals with CAKI-1.
Assay [14] relates to M14.
For assay [15], the system named is UACC-257.
Assay [16] relates to HOP-92.
For assay [17], the system named is SR.
Assay [18] concerns SW-620.
Assay [19] deals with DU-145.
Assay [20] has as its system SK-MEL-28.

SMILES strings stand for the structures.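 48-hour exposure; five concentrations; linearly interpolated endpoints. GI50 marks 50% less growth.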 Active and inactive are the calls of the source. Rule as the data show it: active = GI50 up to about 1.1 µM and inactive = higher.

The values below come from ChEMBL document CHEMBL1201862, “PubChem BioAssay data set” (2004).

In the case of `O=C(CC(C(=O)c1ccco1)c1ccsc1)c1ccco1` (stereo not given), the GI50 in [1] is 17.3 µM (inactive); in assay [2], > 100 µM (inactive); in [3], 89.7 µM (inactive); in assay [4], > 100 µM (inactive); in [5], > 100 µM (inactive); in assay [6], > 100 µM (inactive). Besides, the GI50 in assay [7] is 37.4 µM (inactive); in assay [8], 91.2 µM (inactive); in assay [9], > 100 µM (inactive); in assay [10] it was > 100 µM (inactive); in assay [11], 75.2 µM (inactive); in assay [12], > 100 µM (inactive). The GI50 is > 100 µM (inactive) in [13]; > 100 µM (inactive) in [14]; > 100 µM (inactive) in [15]; > 100 µM (inactive) in assay [16]; 67.8 µM (inactive) in [17]; > 100 µM (inactive) in [18]. Moreover, the GI50 in [19] and in assay [20] was > 100 µM (inactive) each time.

Regarding `O=C1Nc2ccc([N+](=O)[O-])cc2/C1=N/NC(=S)Nc1ccccc1`, the GI50 was 4.71 µM (inactive) in assay [1]; 35.7 µM (inactive) in assay [2]; 5.21 µM (inactive) in assay [3]; 3.6 µM (inactive) in [4]; 5.37 µM (inactive) in assay [5]; 12 µM (inactive) in assay [6]. For the same molecule, the GI50 in assay [7] was 5.98 µM (inactive); in assay [8], 10 µM (inactive); in assay [9] it was 5.16 µM (inactive); in assay [10], 1.21 µM (inactive); in assay [11], 7.23 µM (inactive); in assay [12], 12.2 µM (inactive). Besides, the GI50 in assay [13] was 3.53 µM (inactive); in assay [14], 6.01 µM (inactive); in [15], 12.7 µM (inactive); in assay [16] it was 2.92 µM (inactive); in [17], 5.26 µM (inactive); in assay [18], 8.99 µM (inactive). Moreover, the results for the GI50 in [19] and in assay [20] were 11.8 µM (inactive) and 16.5 µM (inactive), respectively.

With `CC(C)(C)OC(=O)N(CCCCNC(=O)OCc1ccccc1)CCCNC(=O)OCc1ccccc1`, the GI50 in [1] was 5.19 µM (inactive); in assay [2] it was > 100 µM (inactive); in assay [3], 5.28 µM (inactive); in [4], 98.6 µM (inactive); in [5], 18.5 µM (inactive); in assay [6], > 100 µM (inactive). The GI50 in [7] is 3.27 µM (inactive); in assay [8], > 100 µM (inactive); in assay [9] it was 32.4 µM (inactive); in [10] it was 50.4 µM (inactive); in assay [11], 33 µM (inactive); in [12], > 100 µM (inactive). Besides, the GI50 in [13] was 1.96 µM (inactive); in assay [14] it was 51.8 µM (inactive); in assay [15] it was 26.4 µM (inactive); in [16], 23.4 µM (inactive); in [17], 9.68 µM (inactive); in [18], 71 µM (inactive). The GI50 in assay [19] and in assay [20] was > 100 µM (inactive) each time.

`CCNC(=O)c1cc(/C=C/c2ccc([N+](=O)[O-])o2)nc2ccccc12`: the GI50 in [1] is > 100 µM (inactive); in assay [2], 63.7 µM (inactive); in assay [3], 2.75 µM (inactive); in assay [4] it was 5.26 µM (inactive); in assay [5], 6.82 µM (inactive); in assay [6] it was 23.3 µM (inactive). The GI50 in assay [7] is 0.276 µM (active); in [8], > 62.4 µM (inactive); in [9] it was 15.8 µM (inactive); in assay [10], > 58.2 µM (inactive); in [11], > 100 µM (inactive); in [12], > 100 µM (inactive). The GI50 is 7.96 µM (inactive) in assay [13]; 2.34 µM (inactive) in [14]; 3.67 µM (inactive) in assay [15]; > 22.4 µM (inactive) in assay [16]; 1.38 µM (inactive) in [17]; 13.7 µM (inactive) in assay [18]. Moreover, the GI50 in [19] was 2.74 µM (inactive); in assay [20], 5.32 µM (inactive).

As to `O=C1CCCCC1C(O)(C(F)(F)F)C(F)(F)Cl` (stereo not given), the GI50 in assay [1], in assay [2], in assay [3], in assay [4], in [5] and in assay [6] was > 10 µM (inactive) in each case. The GI50 in assay [7], in assay [8], in [9], in assay [10], in [11] and in assay [12] was > 10 µM (inactive) throughout. Besides, the GI50 in [13], in assay [14], in [15], in assay [16], in assay [17] and in assay [18] was > 10 µM (inactive) each time. In addition, the GI50 in [19] and in assay [20] was > 10 µM (inactive) in each case.

For the molecule `CC(=O)OC12OC(C)(C3C(=O)N(c4ccccc4)C(=O)C31)N(c1ccccc1)C2=O` (stereo not given), the GI50 in assay [1] is > 100 µM (inactive); in assay [2], > 100 µM (inactive); in assay [3], > 100 µM (inactive); in [4], 51.6 µM (inactive); in assay [5], > 100 µM (inactive); in [6] it was > 100 µM (inactive). For the same molecule, the GI50 in assay [7] was > 100 µM (inactive); in assay [8] it was > 100 µM (inactive); in assay [9], > 100 µM (inactive); in assay [10], 84.7 µM (inactive); in assay [11], 51.4 µM (inactive); in [12] it was > 100 µM (inactive). Besides, the GI50 in [13] is > 100 µM (inactive); in assay [14], > 100 µM (inactive); in [15], 16.7 µM (inactive); in assay [16] it was 45.7 µM (inactive); in [17], > 100 µM (inactive); in assay [18] it was > 100 µM (inactive). Further, the GI50 in [19] and in [20] was > 100 µM (inactive) each time.

On to `CC(CO)CCNc1ncnc2c1ncn2CCC(=O)OC(C)(C)C` (stereo not given), for which the GI50 in [1], in [2], in assay [3], in assay [4], in assay [5] and in assay [6] was > 100 µM (inactive) each time. Moreover, the GI50 in assay [7], in [8], in [9], in [10], in assay [11] and in assay [12] was > 100 µM (inactive) in each case. Also, the GI50 in assay [13], in [14], in [15], in assay [16], in [17] and in assay [18] was > 100 µM (inactive) throughout. The GI50 in assay [19] and in assay [20] was > 100 µM (inactive) in each case.

In the case of `Cc1ccc2nc3c(C)c(Cl)c(=O)cc-3sc2c1`, the GI50 is 58.1 µM (inactive) in assay [1]; 21.7 µM (inactive) in assay [2]; 2.59 µM (inactive) in assay [3]; 40.3 µM (inactive) in assay [4]; 60.5 µM (inactive) in [5]; 13.1 µM (inactive) in assay [6]. The GI50 is 4.98 µM (inactive) in assay [7]; 6.97 µM (inactive) in assay [8]; 11.2 µM (inactive) in assay [9]; 38.8 µM (inactive) in assay [10]; 18 µM (inactive) in [11]; 34.3 µM (inactive) in assay [12]. Also, the GI50 in assay [13] was 28.2 µM (inactive); in assay [14] it was 15.2 µM (inactive); in assay [15] it was 16.6 µM (inactive); in assay [16], 34.4 µM (inactive); in assay [17], 5.86 µM (inactive); in assay [18], 28.6 µM (inactive). Also, the GI50 in [19] is 44 µM (inactive); in assay [20], 32.7 µM (inactive).

Turning to `CCOC(=O)Cn1c(=O)c2nc(SC)sc2n(-c2ccc(C)cc2)c1=S`, the GI50 in [1] was > 87.1 µM (inactive); in assay [2], 19.2 µM (inactive); in assay [3] it was > 100 µM (inactive); in assay [4], > 56.9 µM (inactive); in [5] it was > 87.3 µM (inactive); in assay [6], 36.1 µM (inactive). Also, the GI50 is > 100 µM (inactive) in [7]; 50.4 µM (inactive) in assay [8]; 36.6 µM (inactive) in [9]; 74.3 µM (inactive) in assay [10]; 10.2 µM (inactive) in assay [11]; > 100 µM (inactive) in assay [12]. In addition, the GI50 in assay [13] is > 100 µM (inactive); in [14], > 61.7 µM (inactive); in assay [15], > 100 µM (inactive); in assay [16], 21.6 µM (inactive); in [17], > 100 µM (inactive); in [18], > 100 µM (inactive). The GI50 in [19] is 98.4 µM (inactive); in [20], > 100 µM (inactive).
